Measured values reported in patent publication US10844002B2, “Lipids and lipid compositions for the delivery of active agents” (priority 2014, dated 2020).
Where “and” joins values, the source holds several entries; their conditions need not be identical. Equal entries are not always repeated.

What was measured:
RSV F protein = format: in vivo; details: Table 4; BALB/c mice, intramuscular, 1 ng vA375 replicon in LNP, days 0 and 21
[1] = Encapsulation efficiency of RNA replicons (Quant-iT RiboGreen); format: physicochemical; details: LNP 40% cationic lipid, 10% DSPC, 48% cholesterol, 2% PEG-DMG; RNA replicon
Method: Briefly, lipids were dissolved in ethanol (2m1), a RNA replicon was dissolved in buffer (2 ml, 100 mM sodium citrate, pH 6) and these were mixed with 2 ml of buffer followed by 1 hour of equilibration. The mixture was then dialized overnight against 1×PBS. The resulting product contained liposomes, with ˜70-95% encapsulation efficiency.
The percentage of encapsulated RNA and RNA concentration were determined by Quant-iT RiboGreen RNA reagent kit (Invitrogen), following manufacturer's instructions. The ribosomal RNA standard provided in the kit was used to generate a standard curve. LNPs were diluted 10× or 100× in 1× TE buffer (from kit) before addition of the dye. Separately, LNPs were diluted 10× or 100× in 1× TE buffer containing 0.5% Triton X before addition of the dye (to disrupt the LNPs and thus to assay total RNA). Thereafter an equal amount of dye was added to each solution and then ˜180 μL of each solution after dye addition was loaded in duplicate into a 96 well tissue culture plate. The fluorescence (Ex 485 nm, Em 528 nm) was read on a microplate reader. All LNP formulations were dosed in vivo based on the encapsulated amount of RNA.

[2] = system: H1N1 influenza A strain, Ca107; test: Immunogenicity in ferret models (Influenza): microneutralization; format: in vivo, ferrets; details: IM
Method: For immunization in ferrets, a lipid working solution was freshly prepared by dissolving 22.5 mg of Example 1, 5.9 mg of DSPC, 13.9 mg of Cholesterol and 4.0 mg of PEG2000-conjugated DMPE (cat #880150P, Avanti Polar Lipids, Inc.) in 10 ml ethanol. A 10 mL working solution of RNA was also prepared at a concentration of 0.125 mg/ml in 100 mM citrate buffer (pH 6). The working lipid and RNA solutions were heated at 37° C. for 5 min before being loaded into two 10 cc luer-lok syringes. […] The outlet from the T mixer was also FEP tubing separately, 10 mL of citrate buffer (pH 6) was loaded in a third 10 cc syringe which was connected to a separate piece of tubing. All three syringes were loaded on a syringe pump and driven at 1.0 ml/min. The tubing outlets were positioned to collect the mixtures in a 20 mL glass vial which was gently stirred using a stirring bar. All glass vials were baked at 250° C. for 12 hours prior to experiment to completely inactivate any RNase contaminant. At the end of mixing, the stir bar was taken out and the ethanol/aqueous solution was allowed to equilibrate to room temperature for 1 hour. After incubation, the ethanol/aqueous solution was loaded into a syringe, and mixed with equal volume of 100 mM citrate buffer (pH 6) using the aforementioned Tee-junction process. Next, LNPs were concentrated to 20 mL and dialyzed against 10-15 volumes of 1× PBS using by tangential flow filtration before recovering the final product. The TFF system and hollow fiber filtration membranes were purchased from Spectrum Labs (Rancho Dominguez) and were used according to the manufacturer's guidelines. Polysulfone hollow fiber filtration membranes with a 100 kD pore size cutoff and 8 cm^2 surface area were used. For in vitro and in vivo experiments formulations were diluted to the required RNA concentration with 1×. PBS.
A total of seven experimental groups with six animals per group (42 animals) were used in this study; two vaccine doses of each RNA formulation (Groups 2-5), two groups vaccinated with a non-adjuvated (H1N1 subunit) or an adjuvated (MF59/H1N1 subunit) commercially available H1N1 influenza subunit vaccine (Groups 6 and 7) and a mock vaccinated group (Group 1). The RNA test vaccines were derived from a recombinant DNA plasmid (pDNA) carrying an alphavirus genome in which the structural genes were replaced with the HA gene from the H1N1 influenza A strain, Ca107. The RNA was then formulated in either cationic oil-in-water emulsion (CNE) or LNP for delivery to host cells via intramuscular (IM) injection. RNA concentrations for each formulation study group were 15 and 45 mcg for CNE and 5 and 15 mcg for LNP. The H1N1 subunit vaccines were used at a HA subunit protein concentration of 15 mcg. Non-vaccinated animals were mock vaccinated with a vehicle control for the RNA test vaccines. All test vaccines were administered by IM injection on Study Days (SD) 0 followed with a booster vaccination on Study Day 56 (8 weeks post 1st immunization).
Table 5 summarizes Influenza microneutralization data and table 6 the haemagultanin inhibition (HAI) titers. The LNP formulation tested generated immune responses with as little as 5 μg of self-amplifying RNA, as determined by increased HA-specific neutralization and HAI titers.

Structure (SMILES): CCCCC/C=C\C/C=C\CCCCCCCCOc1ccc(OCCCCCCCC/C=C\C/C=C\CCCCC)c(COC(=O)CCCN(C)C)c1 [Example 1, 2,5-bis((9Z,12Z)-octadeca-9,12-dien-1-yloxy)benzyl 4-(dimethylamino)butanoate]
- Log10(IgG titer), 1 ng RNA (RSV-F), 2 weeks post 2nd immunization (RSV F protein): 4.43
- Encapsulation efficiency (RNA %) [1]: 96.6%
- Influenza microneutralization titer ([2]; 5 mcg RNA, 4wp1, per animal): 20 (2×) and 80 and 40 (2×) and 10
- Influenza microneutralization titer ([2]; 5 mcg RNA, 4wp2, per animal): 640 (2×) and >20480 (3×) and 320
- Influenza microneutralization titer ([2]; 5 mcg RNA, 8wp1, per animal): 20 (2×) and 40 (2×) and 10 and <10
- Influenza microneutralization titer ([2]; 5 mcg RNA, Pre-bleed, per animal): <10
- Influenza microneutralization titer ([2]; 15 mcg RNA, 4wp1, per animal): 160 (2×) and 320 and 80 (2×) and 40
- Influenza microneutralization titer ([2]; 15 mcg RNA, 4wp2, per animal): 640 (4×) and >20480 (2×)
- Influenza microneutralization titer ([2]; 15 mcg RNA, 8wp1, per animal): 40 (3×) and 80 (2×) and 20
- Influenza microneutralization titer ([2]; 15 mcg RNA, Pre-bleed, per animal): <10
